# In patent publication US12616680B2 (CONSEJO SUPERIOR DE INVESTIGACIONES CIENTÍFICAS (CSIC), priority 2019, dated 2026):
# Test system: R6/1 mice
# Details: oral in drinking water from 3 weeks of age, open field at 13 weeks, rotarod at 18 weeks, biotin 10 mg/kg/day or thiamine 200 mg/kg/day, given separately, FIG. 6A-B
structure (smiles),measurement,value
Cc1ncc(C[n+]2csc(CCO)c2C)c(N)n1 [thiamine],"effect on hypoactivity (open field, distance covered) and motor coordination deficit (rotarod, time to fall)",only showed improving trends in some of the behavioural tests
